In paper PMC12648092 (Acta Pharmaceutica Sinica. B, 2025):

These compounds were tested against AChE (Homo sapiens, UniProt P22303) (assay: ROCMCBs).
AChE, sequence (P22303 32-617 isoform P22303-2 limits assumed): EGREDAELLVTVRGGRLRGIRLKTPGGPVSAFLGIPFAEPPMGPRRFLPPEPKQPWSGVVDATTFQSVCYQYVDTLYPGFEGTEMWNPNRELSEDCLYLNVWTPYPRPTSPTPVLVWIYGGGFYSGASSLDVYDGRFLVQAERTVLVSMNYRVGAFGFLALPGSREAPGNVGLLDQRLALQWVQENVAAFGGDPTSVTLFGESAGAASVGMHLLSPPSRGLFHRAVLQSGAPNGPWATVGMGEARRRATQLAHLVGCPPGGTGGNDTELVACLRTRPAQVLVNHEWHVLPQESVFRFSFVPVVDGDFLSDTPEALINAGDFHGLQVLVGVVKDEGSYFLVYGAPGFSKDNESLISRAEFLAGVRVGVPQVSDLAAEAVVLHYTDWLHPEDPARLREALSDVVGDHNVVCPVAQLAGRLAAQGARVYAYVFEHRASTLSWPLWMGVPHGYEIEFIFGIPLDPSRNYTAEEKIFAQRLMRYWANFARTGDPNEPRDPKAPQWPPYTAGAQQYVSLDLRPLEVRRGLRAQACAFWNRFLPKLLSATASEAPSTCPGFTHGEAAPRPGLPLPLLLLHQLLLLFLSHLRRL

| Structure (SMILES) | IC50 |
| --- | --- |
| O=C(O)[C@H]1O[C@@H](Oc2cc3oc(-c4ccccc4)cc(=O)c3c(O)c2O)[C@H](O)[C@@H](O)[C@@H]1O [baicalin] | 12.2 µM |
| OCc1ccc(O[C@@H]2O[C@H](CO)[C@@H](O)[C@H](O)[C@H]2O)cc1 [gastrodin] | 3.2 µM |
| COC(=O)C1=CO[C@@H](O[C@@H]2O[C@H](CO)[C@@H](O)[C@H](O)[C@H]2O)[C@@H]2C(CO)=CC[C@H]12 [geniposide] | 8.3 µM |
| CC[C@H]1CN2CC[C@]3(C(=O)Nc4ccccc43)[C@@H]2C[C@@H]1/C(=C\OC)C(=O)OC [rhynchophylline] | 66.3 µM |
